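Five compound concentrations were applied to cells in 96-well plates for 48 hours; endpoints were derived by simple linear interpolation of the resulting dose-response curve. Here, GI50 denotes the concentration required for 50% inhibition of growth.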 Calls of active or inactive are those of the source. No stated cut-off is given here; in the data, active = GI50 up to about 1.1 µM and inactive = higher.
What was measured:
Experiment in all cases: NCI tumour cell line growth inhibition, 48 h
[1] = system: A498
[2] = system: A549
[3] = system: ACHN
[4] = system: CAKI-1
[5] = system: CCRF-CEM
[6] = system: COLO 205
[7] = system: DLD-1
[8] = system: DMS-114
[9] = system: DMS-273
[10] = system: EKVX
[11] = system: HCC 2998
[12] = system: HCT-116
[13] = system: HCT-15
[14] = system: HL-60
[15] = system: HOP-18
[16] = system: HOP-62
[17] = system: HOP-92
[18] = system: HT-29
[19] = system: IGROV-1
[20] = system: K562
[21] = system: KM-20L2
[22] = system: KM12
[23] = system: LOX IMVI
[24] = system: LXFL 529
[25] = system: M14
[26] = system: M19-MEL
[27] = system: MOLT-4
[28] = system: NCI-H226
[29] = system: NCI-H23
[30] = system: NCI-H460
[31] = system: NCI-H522
[32] = system: OVCAR-3
[33] = system: OVCAR-4
[34] = system: OVCAR-5
[35] = system: OVCAR-8
[36] = system: RPMI-8226
[37] = system: SF-268
[38] = system: SF-295
[39] = system: SF-539
[40] = system: SK-MEL-28
[41] = system: SK-MEL-5
[42] = system: SK-OV-3
[43] = system: SN12C
[44] = system: SNB-19
[45] = system: SNB-75
[46] = system: SW-620
[47] = system: TK-10
[48] = system: U-251
[49] = system: UACC-62
[50] = system: XF498
[51] = system: 786-0
[52] = system: Malme-3M
[53] = system: SK-MEL-2
[54] = system: SNB-78
[55] = system: SR
[56] = system: UACC-257
[57] = system: UO-31

What does the source list for O=C(O)C12CCCCC1CCCC2 (stereo unspecified)?
GI50 [1]: > 100 µM (inactive); GI50 [2]: > 100 µM (inactive); GI50 [3]: > 100 µM (inactive); GI50 [4]: > 100 µM (inactive); GI50 [5]: > 100 µM (inactive); GI50 [6]: > 100 µM (inactive); GI50 [7]: > 100 µM (inactive); GI50 [8]: > 100 µM (inactive); GI50 [9]: > 100 µM (inactive); GI50 [10]: > 100 µM (inactive); GI50 [11]: > 100 µM (inactive); GI50 [12]: > 100 µM (inactive); GI50 [13]: > 100 µM; GI50 [14]: > 100 µM (inactive); GI50 [15]: > 100 µM (inactive); GI50 [16]: > 100 µM (inactive); GI50 [17]: > 100 µM (inactive); GI50 [18]: > 100 µM (inactive); GI50 [19]: > 100 µM (inactive); GI50 [20]: > 100 µM (inactive); GI50 [21]: > 100 µM (inactive); GI50 [22]: > 100 µM (inactive); GI50 [23]: > 100 µM (inactive); GI50 [24]: > 100 µM (inactive); GI50 [25]: > 100 µM (inactive); GI50 [26]: > 100 µM (inactive); GI50 [27]: > 100 µM (inactive); GI50 [28]: > 100 µM (inactive); GI50 [29]: > 100 µM (inactive); GI50 [30]: > 100 µM (inactive); GI50 [31]: > 100 µM (inactive); GI50 [32]: > 100 µM (inactive); GI50 [33]: > 100 µM (inactive); GI50 [34]: > 100 µM (inactive); GI50 [35]: > 100 µM (inactive); GI50 [36]: > 100 µM (inactive); GI50 [37]: > 100 µM (inactive); GI50 [38]: > 100 µM (inactive); GI50 [39]: > 100 µM (inactive); GI50 [40]: > 100 µM (inactive); GI50 [41]: > 100 µM (inactive); GI50 [42]: > 100 µM (inactive); GI50 [43]: > 100 µM (inactive); GI50 [44]: > 100 µM (inactive); GI50 [45]: 98.2 µM (inactive); GI50 [46]: > 100 µM (inactive); GI50 [47]: > 100 µM (inactive); GI50 [48]: > 100 µM (inactive); GI50 [49]: > 100 µM (inactive); GI50 [50]: > 100 µM (inactive)

With O=C(CSC(=S)N1CCOCC1)Nc1nc2c(s1)CCCC2 as the molecule, how does the GI50 [51] read?
Its GI50 is 90.2 µM (inactive).

And the GI50 [1]?
The GI50 was > 100 µM (inactive).

What about the GI50 [2] of the same molecule?
Its GI50 is > 100 µM (inactive).

And the GI50 [3]?
The GI50 was > 100 µM (inactive).

What about the GI50 [5] of the same molecule?
The GI50 was 45.8 µM (inactive).

And the GI50 [6]?
The GI50 was > 100 µM (inactive).

What about the GI50 [7] of the same molecule?
Its GI50 is > 100 µM (inactive).

What about the GI50 [8] of the same molecule?
Its GI50 is 30.1 µM (inactive).

What about the GI50 [9] of the same molecule?
Its GI50 is > 100 µM (inactive).

And the GI50 [10]?
The GI50 was 99.5 µM (inactive).

What about the GI50 [11] of the same molecule?
The GI50 was 24.1 µM (inactive).

And the GI50 [12]?
Its GI50 is > 100 µM (inactive).

And the GI50 [13]?
The GI50 was over 100 µM.

And the GI50 [14]?
The GI50 was 27.7 µM (inactive).

What about the GI50 [16] of the same molecule?
Its GI50 is > 100 µM (inactive).

What about the GI50 [17] of the same molecule?
Its GI50 is 23.9 µM (inactive).

What about the GI50 [18] of the same molecule?
Its GI50 is > 100 µM (inactive).

And the GI50 [19]?
The GI50 was > 100 µM (inactive).

What about the GI50 [21] of the same molecule?
Its GI50 is > 100 µM (inactive).

What about the GI50 [22] of the same molecule?
The GI50 was > 100 µM (inactive).

And the GI50 [23]?
The GI50 was > 100 µM (inactive).

What about the GI50 [24] of the same molecule?
Its GI50 is > 100 µM (inactive).

And the GI50 [25]?
Its GI50 is > 100 µM (inactive).

What about the GI50 [26] of the same molecule?
The GI50 was 92.5 µM (inactive).

And the GI50 [27]?
Its GI50 is > 100 µM (inactive).

What about the GI50 [52] of the same molecule?
Its GI50 is 45.3 µM (inactive).

What about the GI50 [28] of the same molecule?
Its GI50 is > 100 µM (inactive).

And the GI50 [29]?
Its GI50 is 97.7 µM (inactive).

What about the GI50 [30] of the same molecule?
The GI50 was > 100 µM (inactive).

What about the GI50 [31] of the same molecule?
Its GI50 is 27.8 µM (inactive).

And the GI50 [32]?
The GI50 was 51.9 µM (inactive).

And the GI50 [33]?
Its GI50 is > 100 µM (inactive).

And the GI50 [34]?
The GI50 was > 100 µM (inactive).

What about the GI50 [35] of the same molecule?
The GI50 was > 100 µM (inactive).

And the GI50 [36]?
Its GI50 is > 100 µM (inactive).

And the GI50 [37]?
Its GI50 is > 100 µM (inactive).

What about the GI50 [38] of the same molecule?
Its GI50 is > 100 µM (inactive).

And the GI50 [39]?
Its GI50 is > 100 µM (inactive).

What about the GI50 [40] of the same molecule?
Its GI50 is > 100 µM (inactive).

And the GI50 [53]?
Its GI50 is > 100 µM (inactive).

And the GI50 [41]?
Its GI50 is 35.5 µM (inactive).

What about the GI50 [42] of the same molecule?
Its GI50 is > 100 µM (inactive).

What about the GI50 [43] of the same molecule?
Its GI50 is > 100 µM (inactive).

What about the GI50 [45] of the same molecule?
The GI50 was > 100 µM (inactive).

And the GI50 [54]?
Its GI50 is > 100 µM (inactive).

What about the GI50 [55] of the same molecule?
The GI50 was 34.2 µM (inactive).

What about the GI50 [47] of the same molecule?
The GI50 was > 100 µM (inactive).

What about the GI50 [48] of the same molecule?
The GI50 was > 100 µM (inactive).

And the GI50 [56]?
The GI50 was 45.7 µM (inactive).

What about the GI50 [57] of the same molecule?
Its GI50 is 41.4 µM (inactive).

And the GI50 [50]?
The GI50 was 50.1 µM (inactive).

Source: ChEMBL document CHEMBL1201862, “PubChem BioAssay data set” (2004)
